Data: paper PMC7235871, “Excretion of the Polymyxin Derivative NAB739 in Murine Urine” (Antibiotics, 2020)
Positions of bridges follow the written chain, without caps; N, C: chain ends. Non-standard residues stand in square brackets, D forms with d. Residues, ends and D or L forms follow the SMILES beside them. *: point of attachment. Octanoyl = CCCCCCCC(=O)*; Dab = NCC[C@H](N)C(=O)O

How the values were obtained:
[1] = Plasma concentrations (PK) in NMRI mice after SC administration; type: in vivo
Procedure: (§1) NMRI female mice (10–12 weeks old, 29–32 g, n = 64) were obtained from ENVIGO (The Netherlands) and housed prior to treatment under standard conditions (acclimatization period of 1 week, 21–23 °C, 12-h light/dark cycle, relative humidity 45%–65%) with unlimited access to food (R70 diet from Lantmännen) and water. The experimental procedures were performed in accordance with the guidelines of the European Community and local laws and policies (Directive 2010/63/EU), and all of the procedures were approved by Food and Veterinary Service, Riga, Latvia. Studies involving animals are reported in accordance with the ARRIVE guidelines. Animals were weighed on the day of the treatment (before treatment) to calculate the required amount of compound for the corresponding dose. For PK and excretion studies the mice were dosed subcutaneously (SC) via a bolus injection (injection volume 10 mL/kg). Four consecutive doses were administrated twice a day at 9:00 AM and 15:00 PM over the course of two days.
Blood samples were collected in tubes containing heparin. Blood was sampled from tail vein 15, 30, and 45 min after the first and last administrations of the compounds. Tubes were centrifuged at +4 °C 10,000× g for 3 min. Plasma samples were collected and stored at −20 °C until analysis.
(§2) Plasma and urine sample analyses were performed using the quantitative UPLC/MS/MS method. Calibration standards and quality control samples for plasma analysis were prepared by spiking blank mouse plasma (CD-1, anticoagulant Na Heparin, Innovative Research, USA) with a stock solution of analyte to achieve a nominal concentration ranging from 0.01 to 50 μg/mL for NAB739 and PMB. Calibration standards and quality control samples for urine analysis were prepared by spiking blank mouse urine (mouse CD-1 urine, Sera Laboratories International Ltd., UK) with a stock solution of analytes to achieve a nominal concentration from 0.04 to 30 μg/mL for NAB739 and PMB.
(§3) A sample volume of 20 μL (calibration standards, quality controls or analytical samples in plasma or urine) was transferred into the plastic tube and mixed with 100 μL of 1% formic acid solution in acetonitrile/methanol (3:1, v/v) mixture to precipitate proteins. The tubes were vortex- mixed and centrifuged at 10,000 rpm for 10 min. Then, 100 μL of supernatant was diluted with 400 μL of water and subjected to UPLC/MS analysis as follows:
(§4) UPLC system Acquity H-class (Waters) connected with triple quadrupole mass spectrometer Xevo TQ-S (Waters). UPLC conditions: Column—Acquity BEH C18 (2.1 × 50 mm, 1.7 µm); Mobile phase—A: 0.1% Formic acid aqueous solution, B: Acetonitrile; Gradient: Initial—90%A, 2.5 min—5% A, 4.0 min—5% A, 4.5 min—90% A, 6 min—90% A; Flow—0.3 mL/min; Column temperature—40 °C; Injection volume—1 μL (NAB739) or 5 μL (PMB). MS conditions: Ionization—ESI positive mode; Capillary voltage—1.0 kV; ESI source temperature—120 °C; Desolvation gas (N2) flow—800 L/h; Desolvation temperature—600 °C.

[2] = Urinary elimination in NMRI mice after SC administration (pooled 0–3 h urine); type: in vivo
Procedure: as §1
For PK study, before the administration of the compound, mice voiding was stimulated. Then compound was administrated SC. Mice were put in separate cages with LabSand (USA) and urine was collected during the next 3 h. At the end of each 1-h period voiding was stimulated by gentle massage of the belly. Urine samples from each mouse were pooled in one tube. Urine volume was determined by weighing of the pooled urine sample.
as §2, §3, §4

[3] = system: E. coli; conditions: murine E. coli pyelonephritis, cited from earlier work; for Half maximal effective dose (ED50) in kidneys: bacterial burden in kidneys
[4] = cynomolgus monkey, in vivo; cited from earlier work
[5] = cynomolgus monkey, in vivo; cited from earlier work; remark: listed apart in the source
[6] = Observation of adverse effects during administration in mice; type: in vivo, NMRI mice; conditions: SC, doses 0.25, 0.5, 1, 2 and 4 mg/kg, single and four-times-repeated
Procedure: as §1

[7] = set-up: method as in PMID 18840079; conditions: patients; cited from earlier work

CCCCCCCC(=O)N[C@H](C(=O)N[C@H](CO)C(=O)N[C@H]1CCNC(=O)[C@H]([C@@H](C)O)NC(=O)[C@H](CCN)NC(=O)[C@H](CCN)NC(=O)[C@H](CC(C)C)NC(=O)[C@@H](Cc2ccccc2)NC(=O)[C@H](CCN)NC1=O)[C@@H](C)O [NAB739] (Octanoyl-T[dS][Dab][Dab][dF]L[Dab][Dab]T; lactam 3-C; N-terminus assumed)
Plasma concentration ([1]; female, NMRI, mouse, in vivo, sc, 0.5 mg/kg): exceeded 1 µg/mL | Linearity of Cmax and dose–response relationship, correlation coefficient ([1]; mouse, in vivo, sc): 0.9987 | Urinary concentration ([2]; female, NMRI, mouse, in vivo, sc, 4 mg/kg): above 35 µg/mL | Relative elimination by urine higher after the last dose than after the first dose, average ([2]; mouse, in vivo): 26% | Urine concentration higher after the last dose compared to the first dose, average ([2]; mouse, in vivo): 27% | Detection in urine samples ([2]; mouse, in vivo, sc, 4 mg/kg): found in all pooled (0–3 h) urine samples | Half maximal effective dose (ED50) in kidneys [3]: 0.24 mg/kg | Fold lower dose than PMB reducing bacterial burden in kidney, urine and bladder [3]: approximately 10 fold | Nephrotoxicity compared to PMB [4]: less nephrotoxic | Excretion in urine [5]: excreted in the cynomolgus urine at a very significant extent

polymyxin B [PMB, reference compound]
Plasma concentrations after the first versus the last administration ([1]; SC, four doses): similar | Time at which Cmax was observed after administration ([1]; plasma, SC, all doses 0.25–4 mg/kg): 30 min | Linearity of Cmax and dose–response relationship, correlation coefficient ([1]; plasma, first SC administration, doses 0.25–4 mg/kg): 0.975 | Detection in urine samples ([2]; SC dose of 4 mg/kg, pooled 0–3 h urine): not detected | Detection in urine ([2]; after the fourth SC dose at 4 mg/kg, detection limit 0.6 µg/mL): not found | Adverse effects during administration [6]: no adverse effects were observed | Half maximal effective dose (ED50) in kidneys [3]: 2.1 mg/kg | Part of dose excreted in urine [7]: less than 1%
